According to patent publication US8088892B2, “Inhibitors of proteins from the Rho-GEF family” (Centre National de la Recherche Scientifique (C.N.R.S.), priority 2002, dated 2012):
Where no end group is shown, it is not given here.

Key:
Assay type in all cases: cell-based
PC12 cells = assay: NGF-induced neurite outgrowth; conditions: NGF 50 ng/ml, 1 to 24 hours
Description: PC12 were transfected with GFP-TRIPα (lack squares) or GFP (white diamonds) and subjected to a time-course exposure to NGF (50 ng/ml). At each time-point cells were fixed and the number of transfected cells with neurites was counted from at least 200 cells.
(§1) Since Trio is an activator of RhoA and is expressed in PC12 cells (Estrach et al., 2002), it was analysed whether TRIPα could interfere with serum-induced neurite retraction in NGF-differentiated PC12 cells. […] After NGF treatment, cells were subjected to serum addition (DMEM medium supplemented with 10% HS and 5% fetal calf serum (FCS)) from 0 to 15 min (FIG. 6A). Cells were then fixed and permeabilised (Estrach et al., 2002) and observed as described in FIG. 5. Cells with neurites are defined as cells with neurites of at least twice the length of the cell body.
However, since the NGF treatment was performed for 16 hours, it was still possible that the effect of TRIPα on the NGF-differentiation signal was masked by the long NGF exposure. To test this hypothesis, PC12 cells expressing GFP-TRIPα or […] were subjected to a time-course exposure to NGF (50 ng/ml) for 1 to 24 hours.

[1] = tested on: ectopically expressed TrioGEFD2 in PC12 cells; assay: NGF-induced neurite outgrowth in PC12 cells expressing TrioGEFD2; conditions: PC12 co-transfected with TrioGEFD2, NGF 50 ng/ml 16 hours
Description: FIG. 5C represents the inhibition by TRIPα of the TrioGEFD2 effect in neuronal morphology. Immunofluorescence images of PC12 cells co-transfected with HA-TrioGEFD2 and either GFP-TRIPα (panels d, e, f) or GFP alone panels a, b, c) are shown. After 48 hours of expression, cells were treated for 16 hours with NGF (nerve growth factor) (50 ng/ml) and fixed. Expression of GFP and GFP-TRIPα was directly visualised (a, d) whereas overexpressed TrioGEFD2 was detected using the 12CA5 anti-HA antibody followed by AMCA-conjugated anti-mouse IgG (b, e). Filamentous actin was stained with Rhodamine-conjugated Phalloidin (c, f). Scale bar: 20 μm.
(§2) Cells were transfected with HA-tagged TrioGEFD2 (left side of the figure), myc-tagged KalGEFD2 (middle of the figure) or RhoAV14 (a constitutively active mutant of RhoA) (right side of the figure), and with either GFP-TRIPα (white bars), GFP-TRIPβ (hatched bars) or GFP alone (black bars). Cells were processed as described in FIG. 5C and the number of co-transfected cells with neurites was counted.
(§3) Numerous reports have established Rho-GTPases as key regulators of neuronal morphology (Luo, 2000). In neuronal cell lines, activation of RhoG, Rac and Cdc42 induces neurite outgrowth, while RhoA stimulation antagonises this effect by promoting neurite retraction (Katoh et al., 2000; Kozma et al., 1997; Yamaguchi et al., 2001). The PC12 cell line is a useful cellular model for studying Nerve Growth Factor (NGF)-induced neuronal differentiation. PC12-E2 cells were plated on collagen-coated 12 mm coverslips as described previously (Estrach et al., 2002) and transfected with the Lipofectamine Plus reagent (Life Technologies) according to the manufacturer's instructions. After transfection and differentiation with NGF (Promega, 50 ng/ml in DMEM medium supplemented with 0.5% horse serum (HS)) for 16 hours, PC12 cells were fixed and permeabilised as described (Estrach et al., 2002). […] Images were recorded using a Hamamatsu CCD camera. All transfections were repeated at least three times, and an average of 200 cells was counted each time. […]

[2] = tested on: TrioGEFD2-mediated RhoA activation; assay: RhoA activity assay (Rhotekin RBD pull-down) in COS cells; conditions: COS cells co-transfected, 48 hours
Description: FIG. 5B represents the inhibitory effect of TRIPα on TrioGEFD2-mediated RhoA activation in intact cells using the RhoA activity assay, COS cells were transfected with GFP-TRIPα (left line), TrioGEFD2 (middle line) or both (right line). Cell lysates were subjected to GST-pulldown using the recombinant RBD (RhoA binding domain) fragment of the RhoA-specific effector Rhotekin. The presence of the GTP-bound form of RhoA and of the total RhoA protein was detected using a monoclonal anti-RhoA antibody and is represented in the upper two panels. GFP-TRIPα and TrioGEFD2 expression in the cell lysates is shown in the lower two panels.
Quantification of the RhoA activity assay is shown in the right part of the figure. The y-axis represents the ratio between active RhoA and total RhoA, in arbitrary units.
The Inventors then wanted to assess the inhibition by TRIPα of TrioGEFD2-mediated activation of endogenous RhoA in intact cells. To do so, the RhoA activity assay was used to detect the active GTP-bound form of RhoA (Ren et al., 1999). Briefly, COS cells were transfected as described in FIG. 5A with TrioGEFD2 in absence or in the presence of GFP-TRIAPα. 48 hours after transfection, cell lysates were subjected to GST-pull down using 20 μg of the recombinant RBD (RhoA binding domain) fragment of the RhoA-specific effector Rhotekin, that binds only to the activated GTP-bound form of RhoA.

[3] = tested on: NGF-differentiated PC12 cells; assay: Serum-induced neurite retraction; conditions: 15 min after serum (10% HS and 5% FCS); NGF 50 ng/ml 16 hours
Description: FIG. 6A represents histograms quantifying the effects of GFP-TRIPα or GFP on serum induced neurite retraction in NGF-differentiated PC12 cells. The X-axis represents the time after serum addition in minutes and the Y-axis represents the percentage of transfected cells with neurites.
Cells were transfected with GFP-TRIPα (white bars) or GFP (black bars) and differentiated with NGF (50 ng/ml). Serum was added and neurite retraction was followed for 15 minutes. The number of transfected cells with neurites was counted from at least 200 cells in 3 independent experiments.
as §1

KalGEFD2 in PC12 cells = assay: NGF-induced neurite outgrowth in PC12 cells expressing KalGEFD2; conditions: PC12 co-transfected with KalGEFD2, NGF 50 ng/ml
Description: as §2
as §3, with “instructions.” for “instructions. After transfection and differentiation with NGF (Promega, 50 ng/ml in DMEM medium supplemented with 0.5% horse serum (HS)) for 16 hours, PC12 cells were fixed and permeabilised as described (Estrach et al., 2002).”

GFP-TRIPα: variable region of TRIAPα (TRIPα) fused to GFP, expressed from pEGFP-C3 plasmid (AREGADGAICGYNLATLVMLGPSERVFCPLCEPCSSDIYELM; cysteine pairing not given here; also: fused to GFP (carrier not in chain))
Effect on NGF-induced neurite outgrowth, time course (PC12 cells): responded to NGF treatment more quickly than the control cells | Reversion of TrioGEFD2 inhibition of NGF-induced neurite outgrowth [1]: reverted the Trio-dependent inhibition | percentage of co-transfected cells with neurites [1]: 45% | Inhibition of TrioGEFD2-mediated RhoA activation in intact cells [2]: significantly inhibited | percentage of transfected cells with neurites after serum addition [3]: 32% | Effect on KalGEFD2 inhibition of NGF-induced neurite extension (KalGEFD2 in PC12 cells): similarly inhibited by KalGEFD2 either with or without
